# Data: US10195156B2, “Compounds and compositions for intracellular delivery of agents” (ModernaTX, Inc., priority 2015, dated 2019)
# Tests used:
# [1] = Encapsulation efficiency of RNA (QUANT-IT RIBOGREEN RNA assay); type: physicochemical
# Method in brief: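 RiboGreen fluorescence (ex ~480, em ~520 nm) measured after 15 min at 37 °C on samples at ~5 μg/mL in TE, pH 7.5, ± 2% Triton X-100 solution. After blank subtraction, free RNA is given as intact-sample signal divided by disrupted-sample signal.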
# [2] = test system: luciferase (Luc) mRNA expression; test: Expression of Luc induced by sample formulations, whole-body bioluminescence after intravenous administration; type: in vivo; settings: mice, i.v., 0.5 mg/kg
# Method in brief: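 Read-out is whole-body bioluminescence at 3, 6 and 24 h after a single intravenous dose of 0.5 mg/kg Luc mRNA in nanoparticle formulations. Groups of n=6 mice; PBS and standard MC3 formulation as references.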
# [3] = Particle size and polydispersity index of nanoparticle compositions (Zetasizer Nano ZS); type: physicochemical; settings: for particle size, rank within the named table (in words): comparison amongst compositions
# Method in brief: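 Values are size and PDI readings from a Zetasizer Nano ZS. Measurements are taken in 1×PBS; zeta potential, by contrast, uses 15 mM PBS.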
# [4] = pKa of nanoparticle compositions; type: physicochemical
# [5] = test system: IL-6; test: Cytokine production induced by sample formulations: IL-6; type: in vivo; settings: mice, i.v., 0.5 mpk, 6 hours; for IL-6: in pg/mL (unit assumed)
# Text: (§1) The introduction of foreign material into a mammalian body induces an innate immune response that promotes cytokine production. Such immune responses to, for example, nanoparticle compositions including therapeutic and/or prophylactic agents, are undesirable. The induction of certain cytokines is thus measured to evaluate the […] of nanoparticle compositions. The concentrations of various cytokines in mice upon intravenous administration of nanoparticle compositions presented in Tables 1, 1a, 17-1, 19-1, 20-1 and 21-1 at a dosage of 0.5 mpk was measured at 6 hours. The standard MC3 formulation and a PBS control were also tested.
# [6] = test system: modified luciferase expression; test: Expression of Luc in different organs (liver, lung, spleen, femur) 6 hours after intravenous administration; type: in vivo; settings: i.v., 0.5 mpk
# Experimental: The efficacy of the nanoparticle compositions presented in Tables 1, 1a, 17-1, 19-1, 20-1 and 21-1 was further evaluated by measuring the expression of modified luciferase in the liver, lung, spleen, and femur upon administration of a given composition. Formulations were administered intravenously to mice (n=3) at a dosage of 0.5 mpk and bioluminescence measured after 6 hours. The standard MC3 formulation and a PBS control were also tested.
# [7] = test system: IP-10; test: Cytokine production induced by sample formulations: IP-10; type: in vivo; settings: mice, i.v., 0.5 mpk, 6 hours; for IP-10: in pg/mL (unit assumed)
# Text: as §1
# [8] = Table 20-1, rows without footnote mark
# [9] = Table 1, rows without footnote mark
SMILES,"EE (%) [1, 8] [%]",Total Flux 3 hours ([2]; Table 20-2),Total Flux 6 hours ([2]; Table 20-2),Total Flux 24 hours ([2]; Table 20-2),"PDI [3, 8]","Size (nm) [3, 8] [nm]","particle size, rank within the named table (in words) [3]","pKa [4, 8]","IL-6 ([5]; Table 20-4, formula (20-I))","Total Flux Femur ([6]; Table 20-3, mice)","Total Flux Liver ([6]; Table 20-3, mice)","Total Flux Lung ([6]; Table 20-3, mice)","Total Flux Spleen ([6]; Table 20-3, mice)","IP-10 ([7]; Table 20-4, formula (20-I))",EE (%) ([1]; Table 19-1),Total Flux 3 hours ([2]; Table 19-2),Total Flux 6 hours ([2]; Table 19-2),Total Flux 24 hours ([2]; Table 19-2),PDI ([3]; Table 19-1),Size (nm) ([3]; Table 19-1),other results
"CCCCCCCCCCCCN(CCCCCCCCCCCC)CCN(CCO)CCCCCCCC(=O)OC(CCCCCCCC)CCCCCCCC [Compound 20-9, Heptadecan-9-yl 8-((2-(didodecylamino)ethyl)(2-hydroxyethyl)amino)octanoate]",95.9,3.65E+08,6.91E+08,4.81E+07,0.130,64.5,smallest particles,6.22,152.1,2.89E+05,1.57E+08,1.30E+06,5.11E+06,271.1,–,–,–,–,–,–,–
"CCCCC/C=C\CCCCCN(CCCCC/C=C\CCCCC)CCN1CCN(CCN(CCCCCCCCCCCC)CCN(CCCCCCCCCCCC)CCCCCCCCCCCC)CC1 [Compound 25, N^1-(2-(4-(2-(Di((Z)-dodec-6-en-1-yl)amino)ethyl)piperazin-1-yl)ethyl)-N^1,N^2,N^2-tridodecylethane-1,2-diamine]",–,–,–,–,–,–,–,–,–,–,–,–,–,–,–,–,–,–,–,–,"EE (%) [1, 9]: 97.0%; Total Flux 3 hours ([2]; Table 2): 1.06E+10; Total Flux 6 hours ([2]; Table 2): 1.08E+10; Total Flux 24 hours ([2]; Table 2): 2.72E+08; PDI [3, 9]: 0.186; Size (nm) ([3]; Table 1, rows without footnote mark (lipid:DOPE:cholesterol:PEG-DMG 40:20:38.5:1.5, Luc mRNA; MC3 standard formulation)): 90.0 nm; pKa [4, 9]: 6.20; IL-6 ([5]; Table 4): 131; Total Flux Liver ([6]; Table 3, mice): 2.68E+09; Total Flux Lung ([6]; Table 3, mice): 5.88E+06; Total Flux Spleen ([6]; Table 3, mice): 6.00E+06; IP-10 ([7]; Table 4): 1823"
"CCCCCCCCCN(CCCCCCCCC)CCN1CCNCC1 [Compound 19-1, N-Nonyl-N-(2-(piperazin-1-yl)ethyl)nonan-1-amine]",–,–,–,–,–,–,–,–,–,–,–,–,–,–,83.4,6.77E+05,1.85E+06,2.75E+05,0.071,98.0,"pKa ([4]; Table 19-1): 6.76; IL-6 ([5]; Table 19-4): 144.4; Total Flux Liver ([6]; Table 19-3, mice): 8.53E+05; Total Flux Lung ([6]; Table 19-3, mice): 1.06E+04; Total Flux Spleen ([6]; Table 19-3, mice): 1.58E+04; IP-10 ([7]; Table 19-4): 51.1; IP-10 induction, rank or comparison with IL-6 (in words) [7]: lowest IP-10 expression"
"CCCCC/C=C\C/C=C\CCCCCCCCN(CCCCCCCC/C=C\C/C=C\CCCCC)CCN(CCO)CCCCCCCCCCCC [Compound 20-13, 2-((2-(Di((9Z,12Z)-octadeca-9,12-dien-1-yl)amino)ethyl)(dodecyl)amino)ethan-1-ol]",97.7,7.01E+08,1.82E+09,7.39E+07,0.057,74.3,–,5.83,87.8,3.11E+05,1.65E+08,9.09E+05,1.04E+07,70.0,–,–,–,–,–,–,–
"CCCCC/C=C\C/C=C\CCCCCCCCN(CCCCCCCC/C=C\C/C=C\CCCCC)CCN1CCNCC1 [Compound 19-3, (9Z,12Z)—N-((9Z,12Z)—Octadeca-9,12-dien-1-yl)-N-(2-(piperazin-1-yl)ethyl)octadeca-9,12-dien-1-amine]",–,–,–,–,–,–,smallest particles,–,–,–,–,–,–,–,99.7,1.69E+06,1.21E+06,3.39E+05,0.076,47.9,"encapsulation efficiency, rank within the named table (in words) ([1]; comparison amongst compositions): highest encapsulation efficiency; pKa ([4]; Table 19-1): 7.24; IL-6 ([5]; Table 19-4): 5.4; IL-6 induction, rank within the named table (in words) [5]: lowest IL-6 expression; Total Flux Liver ([6]; Table 19-3, mice): 2.65E+05; Total Flux Lung ([6]; Table 19-3, mice): 3.00E+04; Total Flux Spleen ([6]; Table 19-3, mice): 2.55E+05; IP-10 ([7]; Table 19-4): 177.5"
